Experimental data from patent US20180200233A1, “COMPOSITIONS FOR PREVENTING CANCERS ASSOCIATED WITH HUMAN PAPILLOMA VIRUSES” (Loma Linda University, priority 2015, published 2018).

How the values were obtained:
SiHa cells = assay: MTT cell viability, SiHa cells, TRAIL-induced apoptosis; format: cell-based, human; conditions: for increase in cell death in the presence than in the absence of TRAIL: from the EC50 values of Table 2; for concentration required to inhibit binding and to sensitize cells: cell sensitization experiments
Procedure: (§1) FIGS. 3A-E are graphs providing data regarding resistance of HPV^+ SiHa cells to TRAIL-, cisplatin- and […] apoptosis, in the presence and absence of small molecules as disclosed herein. (FIG. 3A) HPV^+ SiHa cells are resistant to TRAIL-induced apoptosis as compared to the human osteosarcoma cell line U2OS. Cells (2×10^4 cells per well) were seeded into a 96-well plate, allowed to incubate overnight, and then treated with indicated concentration of TRAIL in the presence of cycloheximide (5 μg/ml). The viability of cells was measured after overnight incubation using the MTT assay; the viability of cells untreated with TRAIL was set at 100% for each group. (FIG. 3B) The indicated concentrations of three small molecules were added to SiHa cells, and an MTT assay was preformed after overnight incubation. The viability of cells untreated with small molecules was set as 100%. (FIG. 3C) The indicated concentrations of myricetin or spinacine were added 4 h prior to TRAIL (100 ng/ml) in the presence of cycloheximide (5 μg/ml) and incubated at 37° C. overnight. The viability of cells untreated with small molecules was set at 100%. (FIG. 3D and FIG. 3E) SiHa cells (2×10^4 cells per well) were seeded into a 96-well plate and allowed to incubate overnight. 100 μM of myricetin and 50 μM of spinacine were added 4 h prior to either (FIG. 3D) doxorubicin or (FIG. 3E) cisplatin. Cell viability was measured after overnight incubation using the MTT assay, and the viability of cells untreated with either myricetin or spinacine was set at 100%. Experiments were performed in triplicate, and error bars indicate the standard deviation.
FIGS. 5A-B are graphs showing myricetin and spinacine (5) re-sensitized HPV^+, but not HPV^−, cells to treatment with TRAIL. SiHa (2×10^4 cells per well) and C33A cells (1×10^4 cells per well) were seeded into a 96-well plate and allowed to incubate overnight, then cells were pre-treated in the presence or absence of myricetin (100 μM) (FIG. 5A) or spinacine (50 μM) (FIG. 5B) for 4 h. The indicated concentration of TRAIL, along with cycloheximide (5 μg/ml) was added and cells were allowed to incubate overnight. Cell viability was measured by MTT assay, and the viability of cells untreated with TRAIL was set at 100%. Experiments were performed in triplicate, and error bars indicate the standard deviation.
(§2) The molecules were then tested to determine whether those that block E6/caspase 8 binding in vitro could also act in the context of a cell. SiHa cells are an HPV^+ cell line, derived from a cervical carcinoma, which serves as a commonly used model for HPV-associated malignancies. To determine whether HPV^+ SiHa cells are resistant to TRAIL-induced apoptosis, SiHa cells were treated with TRAIL and cell viability was assessed. TRAIL-sensitive, HPV^− U2OS cells served as a positive control. […] Myricetin and/or spinacine were tested to determine if they could sensitize these HPV^+ cells to TRAIL-induced apoptosis. […] Table 2 lists and compares the concentrations of the three tested compounds required to induce death in 50% of SiHa cells in the presence or absence of TRAIL.
The extracellular domain of human TRAIL was cloned into a pTriEx expression plasmid containing N-terminal Hisx6 tag. His-TRAIL was expressed in the E. coli BL-21 pLys strain and purified as previously described. Doxorubicin and cisplatin were purchased from Sigma. His-TRAIL, doxorubicin, and cisplatin were diluted in PBS to the desired concentration before using. To measure cell survival following treatment with TRAIL, cisplatin and doxorubicin, SiHa (2×10^4/well), C33A (1×10^4/well), and HNSCC cells (2×10^4/well) were seeded into 96-well plates and allowed to adhere overnight. Small molecules at the desired concentration were added and incubated at 37° C. for 4 h. As indicated, TRAIL, cisplatin or doxorubicin was then added. […]

in vitro = format: cell-based, human; conditions: human
Procedure: as §1, §2
The extracellular domain of human TRAIL was cloned into a pTriEx expression plasmid containing N-terminal Hisx6 tag. His-TRAIL was expressed in the E. coli BL-21 pLys strain and purified as previously described. Doxorubicin and cisplatin were purchased from Sigma. His-TRAIL, doxorubicin, and cisplatin were diluted in PBS to the desired concentration before using. To measure cell survival following treatment with TRAIL, cisplatin and doxorubicin, SiHa (2×10^4/well), C33A (1×10^4/well), and HNSCC cells (2×10^4/well) were seeded into 96-well plates and allowed to adhere overnight. Small molecules at the desired concentration were added and incubated at 37° C. for 4 h. As indicated, TRAIL, cisplatin or doxorubicin was then added. […] All experiments were repeated at least three times (three biological replicates, carried out on different days), with each experimental group measured in triplicate within each of these individual experiments. […]

SCC 84 (#84) cells = assay: MTT cell viability, HPV- HNSCC cell line #84 with doxorubicin; format: cell-based; conditions: 2 μM doxorubicin; small molecules 0-12.5 μM
Procedure: FIGS. 8A-B includes graphs showing myricetin and spinacine (5) re-sensitized HPV^+, but not HPV^−, HNSCC cell lines to treatment with doxorubicin. One HPV^− (FIG. 8A; #84) and one HPV^+ (FIG. 8B; #90) head and neck cancer cell line (2×10^4 cells per well) were seeded into 96-well plates and allowed to incubate overnight, then cells were pre-treated with myricetin or spinacine (0-12.5 μM) for 4 h. 2 μM of doxorubicin was added and cells were allowed to incubate overnight. Cell viability was measured by MTT assay, and the viability of cells untreated with small molecules was set at 100%. Experiments were performed in triplicate, and error bars indicate the standard deviation.
The results described above indicate that myricetin and spinacine sensitize HPV^+ HNSCC cells to TRAIL-induced apoptosis. To determine whether this sensitization also occurs in the context of chemotherapeutic agents, several HNSCC cell lines were tested for their responses to combination treatments.
The extracellular domain of human TRAIL was cloned into a pTriEx expression plasmid containing N-terminal Hisx6 tag. His-TRAIL was expressed in the E. coli BL-21 pLys strain and purified as previously described. […] All experiments were repeated at least three times (three biological replicates, carried out on different days), with each experimental group measured in triplicate within each of these individual experiments. […]

OCn1cnc2ccccc21 [Compound 3, 1H-benzimidazole-1-methanol]
EC50 for TRAIL-induced apoptosis (SiHa cells; SiHa cells, compound added 4 h prior to TRAIL 100 ng/ml + cycloheximide 5 μg/ml, overnight, MTT): No sensitization | EC50 (in vitro): 285 µM

O=C(O)C1Cc2[nH]cnc2CN1 (centres unmarked) [Compound 5, 4,5,6,7-Tetrahydro-1H-imidazo(4,5-c)pyridine-6-carboxylic acid]
response of HPV- HNSCC cell line #84 to doxorubicin (in words) (SCC 84 (#84) cells): resistant | increase in cell death in the presence than in the absence of TRAIL (SiHa cells; SiHa cells): 8.6 fold | concentration required to inhibit binding and to sensitize cells (SiHa cells): 50 µM | EC50 (in vitro): 268 µM

O=c1c(O)c(-c2cc(O)c(O)c(O)c2)oc2cc(O)cc(O)c12 [Myricetin, reference compound]
response of HPV- HNSCC cell line #84 to doxorubicin (in words) (SCC 84 (#84) cells): resistant | sensitivity of SiHa cells to TRAIL after pre-treatment (in words) (SiHa cells; 100 μM myricetin or 50 μM spinacine for 4 h, TRAIL up through 100 ng/ml): sensitivity increased dramatically | increase in cell death in the presence than in the absence of TRAIL (SiHa cells; SiHa cells): 3.5 fold | concentration required to inhibit binding and to sensitize cells (SiHa cells): 100 µM | EC50 (in vitro): 539 µM
